Molecular target: canine TRPM8 (Canis lupus familiaris, UniProt Q1A7N1)
Test: In Vitro Canine TRPM8 Functional Assay (Ca2+ fluorescence, icilin activation)
Format: cell-based
Conditions: for IC50: HEK293 cells stably expressing canine TRPM8, icilin activation, eight-point dose-response, read-out: IC50; for inhibition at 0.5 µM: compound at 0.5 μM, read-out: % Inh @ 0.5; for inhibition at 0.5 µM / inhibition at 0.2 µM: canine TRPM8, icilin activation; for inhibition at 0.2 µM: compound at 0.2 μM, read-out: % Inh @ 0.2
In short: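 HEK293 cells stably expressing canine TRPM8 were loaded with Calcium 3 dye (35 min at 37 °C, then 25 min at room temperature). Compound was added and Ca2+ fluorescence was read for 5 min before icilin at a concentration giving about 80% maximal response. EC50/IC50 came from eight-point dose-response curves, quadruplicate wells.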

Sequence of canine TRPM8 (Q1A7N1 1-1104): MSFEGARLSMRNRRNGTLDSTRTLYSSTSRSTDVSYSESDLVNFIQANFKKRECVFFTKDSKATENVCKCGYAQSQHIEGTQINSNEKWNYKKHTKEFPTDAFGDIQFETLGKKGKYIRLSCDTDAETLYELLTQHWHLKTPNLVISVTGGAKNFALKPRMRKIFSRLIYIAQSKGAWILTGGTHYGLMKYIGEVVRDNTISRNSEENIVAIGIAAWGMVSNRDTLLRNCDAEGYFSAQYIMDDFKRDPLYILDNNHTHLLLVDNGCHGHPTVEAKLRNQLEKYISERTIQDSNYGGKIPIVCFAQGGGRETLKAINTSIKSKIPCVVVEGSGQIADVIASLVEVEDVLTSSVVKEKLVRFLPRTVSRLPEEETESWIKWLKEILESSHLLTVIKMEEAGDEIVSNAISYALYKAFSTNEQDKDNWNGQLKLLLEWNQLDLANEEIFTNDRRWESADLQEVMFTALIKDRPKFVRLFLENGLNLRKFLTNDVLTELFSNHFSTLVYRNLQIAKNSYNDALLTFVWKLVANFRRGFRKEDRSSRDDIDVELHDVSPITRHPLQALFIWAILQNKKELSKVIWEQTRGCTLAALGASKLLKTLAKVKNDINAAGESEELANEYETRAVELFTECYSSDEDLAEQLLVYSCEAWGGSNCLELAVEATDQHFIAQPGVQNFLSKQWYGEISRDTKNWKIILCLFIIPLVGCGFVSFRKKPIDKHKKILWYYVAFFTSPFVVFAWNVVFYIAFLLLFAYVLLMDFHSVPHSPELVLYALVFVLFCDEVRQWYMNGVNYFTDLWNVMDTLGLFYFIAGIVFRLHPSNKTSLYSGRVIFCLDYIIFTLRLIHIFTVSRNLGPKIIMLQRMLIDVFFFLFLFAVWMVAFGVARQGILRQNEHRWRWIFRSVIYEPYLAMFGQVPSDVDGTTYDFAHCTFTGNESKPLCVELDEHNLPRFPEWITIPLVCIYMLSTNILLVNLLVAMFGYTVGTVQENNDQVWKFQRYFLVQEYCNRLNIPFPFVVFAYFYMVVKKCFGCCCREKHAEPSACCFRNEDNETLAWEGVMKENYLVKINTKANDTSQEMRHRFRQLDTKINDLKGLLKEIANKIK

| Structure (SMILES) | IC50 [nM] | inhibition at 0.5 µM [%] | inhibition at 0.2 µM [%] |
| --- | --- | --- | --- |
| CC(C)(C)OC(=O)NCCN(c1sc2ccccc2c1Cl)S(=O)(=O)c1ccccc1 [Compound 86, N-(3-Chloro-benzo[b]thiophen-2-yl)-N-[2-(carbo-tert-butoxyamino)ethyl]-benzenesulfonamide] | 53 | 101 |  |
| CN(C)CCN(c1sc2ccccc2c1Cl)S(=O)(=O)c1ccccc1 [Compound 87, N-(3-Chloro-benzo[b]thiophen-2-yl)-N-(2-dimethylamino-ethyl)-benzenesulfonamide] | 170 | 94 |  |
| CC(C)(C)OC(=O)N1CCCC1CN(c1sc2ccccc2c1Cl)S(=O)(=O)c1ccccc1 (stereo not drawn) [Compound 89, N-(3-Chloro-benzo[b]thiophen-2-yl)-N-{[1-(carbo-tert-butoxy)pyrrolidin-2-yl]-methyl}-benzenesulfonamide] |  | 96 |  |
| CC(C)(C)OC(=O)N1CCC(CN(c2sc3ccccc3c2Cl)S(=O)(=O)c2ccccc2)CC1 [Compound 90, N-(3-Chloro-benzo[b]thiophen-2-yl)-N-{[1-(carbo-tert-butoxy)piperidin-4-yl]-methyl}-benzenesulfonamide] | 21 | 99 |  |
| O=C1NCCN1CCN(c1sc2ccccc2c1Cl)S(=O)(=O)c1ccccc1 [Compound 91, N-(3-Chloro-benzo[b]thiophen-2-yl)-N-[2-(2-oxo-imidazolidin-1-yl)-ethyl]-benzenesulfonamide] |  | 33 |  |
| COC(=O)[C@H](C)CN(c1sc2ccccc2c1C)S(=O)(=O)c1ccccc1 [Compound 93, N-(3-Methyl-benzo[b]thiophen-2-yl)-N-[2(R)-methyl-2-carbomethoxy-ethyl]-benzenesulfonamide] | 11 |  | 98 |
| Cc1c(N(CCN2CCCCC2)S(=O)(=O)c2ccccc2)sc2ccccc12 [Compound 96, N-(3-Methyl-benzo[b]thiophen-2-yl)-N-(2-piperidin-1-yl-ethyl)-benzenesulfonamide] | 4 |  | 98 |
| COCCN(c1sc2ccccc2c1C)S(=O)(=O)c1ccccc1 [Compound 99, N-(2-Methoxy-ethyl)-N-(3-methyl-benzo[b]thiophen-2-yl)-benzenesulfonamide] | 18 |  | 99 |
| Cc1c(N(CCOC(C)(C)C)S(=O)(=O)c2ccccc2)sc2ccccc12 [Compound 100, N-(2-tert-Butoxy-ethyl)-N-(3-methyl-benzo[b]thiophen-2-yl)-benzenesulfonamide] | 6.8 |  | 103 |
| COC(=O)CN(c1sc2ccccc2c1C)S(=O)(=O)c1ccccc1 [Compound 101, N-(3-Methyl-benzo[b]thiophen-2-yl)-N-(carbomethoxy-methyl)-benzenesulfonamide] | 30.5 |  | 101 |
| Cc1c(N(CC(F)F)S(=O)(=O)c2ccccc2)sc2ccccc12 [Compound 102, N-(2,2-Difluoro-ethyl)-N-(3-methyl-benzo[b]thiophen-2-yl)-benzenesulfonamide] | 40.2 |  | 98 |
| Cc1c(N(CC2CCCN2C(=O)OC(C)(C)C)S(=O)(=O)c2ccccc2)sc2ccccc12 (stereo not drawn) [Compound 103, N-(3-Methyl-benzo[b]thiophen-2-yl)-N-{[1-(carbo-tert-butoxy)pyrrolidin-2-yl]-methyl}-benzenesulfonamide] | 90.8 |  | 80 |
| Cc1c(N(CCc2ccccc2)S(=O)(=O)c2ccccc2)sc2ccccc12 [Compound 104, N-(3-Methyl-benzo[b]thiophen-2-yl)-N-(phenethyl)-benzenesulfonamide] | 8.9 |  | 98 |
| CCS(=O)(=O)N(CCC(F)(F)F)c1sc2ccccc2c1C [Compound 106, N-(3-Methyl-benzo[b]thiophen-2-yl)-N-(3,3,3-trifluoro-propyl)-ethanesulfonamide] | 19 |  | 93 |
| CCS(=O)(=O)N(CCSC)c1sc2ccccc2c1C [Compound 108, N-(3-Methyl-benzo[b]thiophen-2-yl)-N-(2-methylsulfanyl-ethyl)-ethanesulfonamide] |  |  | 71 |
| CCS(=O)(=O)N(CCOC(C)(C)C)c1sc2ccccc2c1C [Compound 110, N-(2-tert-Butoxy-ethyl)-N-(3-methyl-benzo[b]thiophen-2-yl)-ethanesulfonamide] | 7.2 |  | 97 |
| CCS(=O)(=O)N(CC1CCCN1C(=O)OC(C)(C)C)c1sc2ccccc2c1C (stereo not drawn) [Compound 114, N-(3-Methyl-benzo[b]thiophen-2-yl)-N-{[1-(carbo-tert-butoxy)pyrrolidin-2-yl]-methyl}-ethanesulfonamide] | 51.1 |  | 93 |
| CCCCN(c1sc2ccccc2c1C(C)=O)S(=O)(=O)CC [Compound 121, N-(3-Acetyl-benzo[b]thiophen-2-yl)-N-(butyl)-ethanesulfonamide] | 35 |  | 86 |
| CCS(=O)(=O)N(CC1CC1)c1sc2ccccc2c1C(C)=O [Compound 122, N-(3-Acetyl-benzo[b]thiophen-2-yl)-N-(cyclopropylmethyl)-ethanesulfonamide] |  |  | 23 |
| CCS(=O)(=O)N(CCOC(C)(C)C)c1sc2ccccc2c1C(C)=O [Compound 123, N-(3-Acetyl-benzo[b]thiophen-2-yl)-N-(2-tert-butoxy-ethyl)-ethanesulfonamide] |  |  | 60 |

More lines, now with the values ahead:

| IC50 [nM] | inhibition at 0.5 µM [%] | inhibition at 0.2 µM [%] | Structure (SMILES) |
| --- | --- | --- | --- |
| 261 | 88 |  | CS(=O)(=O)CCN(c1sc2ccccc2c1Cl)S(=O)(=O)c1ccccc1 [Compound 88, N-(3-Chloro-benzo[b]thiophen-2-yl)-N-(2-methanesulfonyl-ethyl)-benzenesulfonamide] |
| 68.2 |  | 79 | O=S(=O)(c1ccccc1)N(CCN1CCOCC1)c1sc2ccccc2c1Cl [Compound 92, N-(3-Chloro-benzo[b]thiophen-2-yl)-N-(2-morpholin-4-yl-ethyl)-benzenesulfonamide] |
| 18 |  | 98 | COC(=O)[C@@H](C)CN(c1sc2ccccc2c1C)S(=O)(=O)c1ccccc1 [Compound 94, N-(3-Methyl-benzo[b]thiophen-2-yl)-N-[2(S)-methyl-2-carbomethoxy-ethyl]-benzenesulfonamide] |
| 6 |  | 97 | Cc1c(N(CCN2CCOCC2)S(=O)(=O)c2ccccc2)sc2ccccc12 [Compound 95, N-(3-Methyl-benzo[b]thiophen-2-yl)-N-(2-morpholin-4-yl-ethyl)-benzenesulfonamide] |
| 14 |  | 96 | Cc1c(N(CC2CC2)S(=O)(=O)c2ccccc2)sc2ccccc12 [Compound 97, N-(Cyclopropylmethyl)-N-(3-methyl-benzo[b]thiophen-2-yl)-benzenesulfonamide] |
| 15 |  | 97 | CSCCN(c1sc2ccccc2c1C)S(=O)(=O)c1ccccc1 [Compound 98, N-(3-Methyl-benzo[b]thiophen-2-yl)-N-(2-methylsulfanyl-ethyl)-benzenesulfonamide] |
|  |  | 20 | CCS(=O)(=O)N(CCOC)c1sc2ccccc2c1C [Compound 105, N-(2-Methoxy-ethyl)-N-(3-methyl-benzo[b]thiophen-2-yl)-ethanesulfonamide] |
|  |  | 72 | CC#CCCN(c1sc2ccccc2c1C)S(=O)(=O)CC [Compound 107, N-(3-Methyl-benzo[b]thiophen-2-yl)-N-(pent-3-ynyl)-ethanesulfonamide] |
|  |  | 14 | CCS(=O)(=O)N(C[C@@H]1CCC(=O)N1)c1sc2ccccc2c1C [Compound 109, N-(3-Methyl-benzo[b]thiophen-2-yl)-N-(5-oxo-(S)-pyrrolidin-2-ylmethyl)-ethanesulfonamide] |
| 92 |  | 68 | CCS(=O)(=O)N(CC(F)F)c1sc2ccccc2c1C [Compound 111, N-(2,2-Difluoro-ethyl)-N-(3-methyl-benzo[b]thiophen-2-yl)-ethanesulfonamide] |
| 30.2 |  | 95 | CCS(=O)(=O)N(CC1CC1)c1sc2ccccc2c1C [Compound 112, N-(Cyclopropylmethyl)-N-(3-methyl-benzo[b]thiophen-2-yl)-ethanesulfonamide] |
|  |  | 19 | CCS(=O)(=O)N(CCN1CCOCC1)c1sc2ccccc2c1C [Compound 113, N-(3-Methyl-benzo[b]thiophen-2-yl)-N-(2-morpholin-4-yl-ethyl)-ethanesulfonamide] |
| 79.5 | 95 |  | O=S(=O)(c1ccccc1)N(CCc1ccccc1)c1cc2ccccc2s1 [Compound 115, N-(Benzo[b]thiophen-2-yl)-N-(phenethyl)-benzenesulfonamide] |
| 102 | 98 |  | C=CCN(c1cc2ccccc2s1)S(=O)(=O)c1ccccc1 [Compound 116, N-(Allyl)-N-(benzo[b]thiophen-2-yl)-benzenesulfonamide] |
|  | 99 |  | CCCCN(c1cc2ccccc2s1)S(=O)(=O)c1ccccc1 [Compound 117, N-(Benzo[b]thiophen-2-yl)-N-(butyl)-benzenesulfonamide] |
| 48 | 100 |  | O=S(=O)(c1ccccc1)N(CC1CCCCC1)c1cc2ccccc2s1 [Compound 118, N-(Benzo[b]thiophen-2-yl)-N-(cyclohexylmethyl)-benzenesulfonamide] |
| 134 | 93 |  | O=S(=O)(c1ccccc1)N(c1cc2ccccc2s1)C1CCCCC1 [Compound 119, N-(Benzo[b]thiophen-2-yl)-N-(cyclohexyl)-benzenesulfonamide] |
| 156 |  | 75 | CSCCN(c1cc2ccccc2s1)S(=O)(=O)c1ccccc1 [Compound 120, N-(Benzo[b]thiophen-2-yl)-N-(2-methylsulfanyl-ethyl)-benzenesulfonamide] |

Reference: US9434711B2 (Janssen Pharmaceutica, NV, priority 2007, dated 2016)
